The results in this text go back to ChEMBL document CHEMBL3991601, “The target landscape of clinical kinase drugs” (Science, 2017).

Calls of active or inactive are those of the source. For most assays here, no stated cut-off is given here; in the data, actives have a measured Kd and inactives only a lower limit.

For assay [1], the target named is T1, Serine/threonine-protein kinase A-Raf (Homo sapiens, UniProt P10398).
T1 sequence (P10398 whole entry): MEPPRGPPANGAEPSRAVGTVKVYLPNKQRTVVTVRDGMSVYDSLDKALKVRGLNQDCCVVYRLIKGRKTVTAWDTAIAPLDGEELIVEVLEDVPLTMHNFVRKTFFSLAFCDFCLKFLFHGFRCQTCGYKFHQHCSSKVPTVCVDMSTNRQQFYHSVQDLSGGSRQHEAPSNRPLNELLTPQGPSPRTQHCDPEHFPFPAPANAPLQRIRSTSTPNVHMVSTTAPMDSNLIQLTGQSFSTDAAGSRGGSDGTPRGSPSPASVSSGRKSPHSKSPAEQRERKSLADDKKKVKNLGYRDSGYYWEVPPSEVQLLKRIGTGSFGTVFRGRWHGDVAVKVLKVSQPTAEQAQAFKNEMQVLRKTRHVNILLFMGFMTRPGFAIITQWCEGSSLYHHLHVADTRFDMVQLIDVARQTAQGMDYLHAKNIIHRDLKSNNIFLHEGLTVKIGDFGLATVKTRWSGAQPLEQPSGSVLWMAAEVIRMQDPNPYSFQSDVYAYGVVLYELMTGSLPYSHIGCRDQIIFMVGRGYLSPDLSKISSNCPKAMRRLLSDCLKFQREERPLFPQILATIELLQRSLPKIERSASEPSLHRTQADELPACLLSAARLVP

The target in assay [2] is Cyclin-dependent kinase 1 (Homo sapiens, UniProt P06493).
Chain of Cyclin-dependent kinase 1 (P06493 whole entry): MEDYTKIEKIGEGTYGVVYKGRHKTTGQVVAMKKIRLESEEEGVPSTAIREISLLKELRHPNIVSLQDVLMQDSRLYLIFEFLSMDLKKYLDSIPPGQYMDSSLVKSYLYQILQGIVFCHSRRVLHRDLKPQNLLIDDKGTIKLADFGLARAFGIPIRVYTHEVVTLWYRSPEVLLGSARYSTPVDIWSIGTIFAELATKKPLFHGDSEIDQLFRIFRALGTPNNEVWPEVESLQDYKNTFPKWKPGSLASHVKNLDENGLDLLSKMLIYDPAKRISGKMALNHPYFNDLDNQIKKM
Assay [3] concerns the target T2, Serine/threonine-protein kinase TBK1 (Homo sapiens, UniProt Q9UHD2).
T2 sequence (Q9UHD2 whole entry): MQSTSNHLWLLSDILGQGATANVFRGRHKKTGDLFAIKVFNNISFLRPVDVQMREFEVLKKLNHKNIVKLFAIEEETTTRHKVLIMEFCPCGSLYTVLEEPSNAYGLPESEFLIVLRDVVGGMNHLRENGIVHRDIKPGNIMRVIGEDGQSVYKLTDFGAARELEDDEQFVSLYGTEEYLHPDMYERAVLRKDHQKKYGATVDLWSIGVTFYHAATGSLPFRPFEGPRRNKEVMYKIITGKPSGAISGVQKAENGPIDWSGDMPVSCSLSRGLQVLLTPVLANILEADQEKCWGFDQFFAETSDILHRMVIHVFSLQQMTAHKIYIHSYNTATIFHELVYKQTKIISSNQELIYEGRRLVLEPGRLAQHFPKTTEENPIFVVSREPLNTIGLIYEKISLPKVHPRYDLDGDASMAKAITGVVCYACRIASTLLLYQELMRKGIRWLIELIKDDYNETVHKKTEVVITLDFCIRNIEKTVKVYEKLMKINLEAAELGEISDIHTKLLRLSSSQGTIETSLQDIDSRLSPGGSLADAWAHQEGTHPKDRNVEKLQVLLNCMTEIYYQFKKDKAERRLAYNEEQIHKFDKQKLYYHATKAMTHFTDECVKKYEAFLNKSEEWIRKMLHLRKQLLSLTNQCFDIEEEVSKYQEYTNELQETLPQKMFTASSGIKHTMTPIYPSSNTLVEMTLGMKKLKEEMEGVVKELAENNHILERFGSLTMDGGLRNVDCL

For assay [4], the target named is Mitogen-activated protein kinase kinase kinase kinase 4 (Homo sapiens, UniProt O95819).
Chain of Mitogen-activated protein kinase kinase kinase kinase 4 (O95819 whole entry): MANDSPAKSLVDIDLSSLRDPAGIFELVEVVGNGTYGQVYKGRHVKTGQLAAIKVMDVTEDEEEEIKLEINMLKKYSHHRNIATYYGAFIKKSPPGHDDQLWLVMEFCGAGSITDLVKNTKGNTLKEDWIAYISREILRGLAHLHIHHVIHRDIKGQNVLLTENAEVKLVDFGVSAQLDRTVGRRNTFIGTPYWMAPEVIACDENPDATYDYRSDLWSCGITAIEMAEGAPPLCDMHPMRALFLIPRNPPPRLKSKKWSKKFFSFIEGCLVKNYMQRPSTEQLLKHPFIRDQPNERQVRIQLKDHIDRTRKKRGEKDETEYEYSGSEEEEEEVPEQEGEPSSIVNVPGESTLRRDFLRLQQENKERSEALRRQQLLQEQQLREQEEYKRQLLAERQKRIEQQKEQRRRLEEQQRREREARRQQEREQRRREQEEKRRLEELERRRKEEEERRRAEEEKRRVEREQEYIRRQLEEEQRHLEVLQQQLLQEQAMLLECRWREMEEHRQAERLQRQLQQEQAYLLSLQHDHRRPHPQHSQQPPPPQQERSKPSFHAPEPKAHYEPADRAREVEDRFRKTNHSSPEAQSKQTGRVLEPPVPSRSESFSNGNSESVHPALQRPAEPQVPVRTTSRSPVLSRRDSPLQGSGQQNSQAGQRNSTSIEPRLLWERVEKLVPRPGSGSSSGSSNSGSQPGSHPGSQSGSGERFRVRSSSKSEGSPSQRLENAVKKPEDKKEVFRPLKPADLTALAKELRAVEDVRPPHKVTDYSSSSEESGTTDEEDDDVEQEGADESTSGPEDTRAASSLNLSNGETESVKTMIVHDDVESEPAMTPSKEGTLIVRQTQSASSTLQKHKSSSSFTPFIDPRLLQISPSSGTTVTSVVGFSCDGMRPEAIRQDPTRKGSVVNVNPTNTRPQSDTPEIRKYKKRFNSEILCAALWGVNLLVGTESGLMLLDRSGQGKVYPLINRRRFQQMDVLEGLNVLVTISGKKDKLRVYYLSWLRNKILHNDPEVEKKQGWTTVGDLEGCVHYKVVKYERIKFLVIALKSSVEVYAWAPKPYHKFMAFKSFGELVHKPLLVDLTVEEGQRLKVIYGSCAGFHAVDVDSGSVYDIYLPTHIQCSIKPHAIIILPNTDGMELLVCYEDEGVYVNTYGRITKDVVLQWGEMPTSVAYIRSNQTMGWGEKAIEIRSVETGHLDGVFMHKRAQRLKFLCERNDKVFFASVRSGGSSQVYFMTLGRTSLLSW
Assay [5] concerns the target T3, Mitogen-activated protein kinase kinase kinase 2 (Homo sapiens, UniProt Q9Y2U5).
T3 sequence (Q9Y2U5 whole entry): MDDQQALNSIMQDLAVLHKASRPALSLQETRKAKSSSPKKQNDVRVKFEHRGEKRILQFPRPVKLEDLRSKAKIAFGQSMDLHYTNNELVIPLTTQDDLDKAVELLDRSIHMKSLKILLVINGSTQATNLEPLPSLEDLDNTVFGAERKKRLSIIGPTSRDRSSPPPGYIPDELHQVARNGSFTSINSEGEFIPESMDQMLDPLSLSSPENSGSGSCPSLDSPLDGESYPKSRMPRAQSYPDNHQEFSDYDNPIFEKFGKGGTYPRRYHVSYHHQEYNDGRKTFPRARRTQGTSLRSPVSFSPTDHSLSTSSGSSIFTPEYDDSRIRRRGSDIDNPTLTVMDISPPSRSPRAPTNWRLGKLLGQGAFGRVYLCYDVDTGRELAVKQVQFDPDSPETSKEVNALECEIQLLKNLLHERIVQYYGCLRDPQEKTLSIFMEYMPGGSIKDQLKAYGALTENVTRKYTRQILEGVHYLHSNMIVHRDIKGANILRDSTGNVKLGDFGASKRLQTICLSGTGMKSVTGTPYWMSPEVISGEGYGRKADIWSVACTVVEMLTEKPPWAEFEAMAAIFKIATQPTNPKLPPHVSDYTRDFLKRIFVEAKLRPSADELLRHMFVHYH

Another assay addresses Deoxycytidine kinase (Homo sapiens, UniProt P27707).
The target of assay [6] is Casein kinase I isoform gamma-1 (Homo sapiens, UniProt Q9HCP0).
Chain of Casein kinase I isoform gamma-1 (Q9HCP0 whole entry, canonical isoform): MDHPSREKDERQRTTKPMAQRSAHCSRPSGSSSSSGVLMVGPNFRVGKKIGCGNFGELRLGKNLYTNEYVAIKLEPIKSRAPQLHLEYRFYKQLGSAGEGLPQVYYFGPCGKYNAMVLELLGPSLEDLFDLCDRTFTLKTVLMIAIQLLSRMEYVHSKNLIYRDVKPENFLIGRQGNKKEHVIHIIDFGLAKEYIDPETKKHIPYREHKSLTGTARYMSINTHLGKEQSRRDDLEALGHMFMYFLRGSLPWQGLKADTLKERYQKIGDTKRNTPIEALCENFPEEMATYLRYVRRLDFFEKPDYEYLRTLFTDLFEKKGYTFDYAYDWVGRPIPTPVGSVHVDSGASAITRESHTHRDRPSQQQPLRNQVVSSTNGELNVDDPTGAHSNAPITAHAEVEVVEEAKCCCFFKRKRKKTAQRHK
In assay [7] the target is T4, Serine/threonine-protein kinase Nek3 (Homo sapiens, UniProt P51956).
T4 sequence (P51956 whole entry): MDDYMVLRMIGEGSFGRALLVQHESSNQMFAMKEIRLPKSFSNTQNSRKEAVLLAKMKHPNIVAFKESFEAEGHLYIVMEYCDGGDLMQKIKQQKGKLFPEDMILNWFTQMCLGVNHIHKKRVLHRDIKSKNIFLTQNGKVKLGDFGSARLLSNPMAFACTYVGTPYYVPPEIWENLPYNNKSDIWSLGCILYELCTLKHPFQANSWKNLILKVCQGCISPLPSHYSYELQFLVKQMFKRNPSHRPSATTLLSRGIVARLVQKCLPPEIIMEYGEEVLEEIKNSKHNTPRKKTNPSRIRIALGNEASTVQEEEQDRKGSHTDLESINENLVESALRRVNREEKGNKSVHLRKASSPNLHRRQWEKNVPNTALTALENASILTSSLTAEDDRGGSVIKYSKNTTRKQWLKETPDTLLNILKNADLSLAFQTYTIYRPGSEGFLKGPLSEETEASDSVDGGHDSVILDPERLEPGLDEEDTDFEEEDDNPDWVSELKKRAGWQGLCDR

Chain of Deoxycytidine kinase (P27707 whole entry, canonical isoform): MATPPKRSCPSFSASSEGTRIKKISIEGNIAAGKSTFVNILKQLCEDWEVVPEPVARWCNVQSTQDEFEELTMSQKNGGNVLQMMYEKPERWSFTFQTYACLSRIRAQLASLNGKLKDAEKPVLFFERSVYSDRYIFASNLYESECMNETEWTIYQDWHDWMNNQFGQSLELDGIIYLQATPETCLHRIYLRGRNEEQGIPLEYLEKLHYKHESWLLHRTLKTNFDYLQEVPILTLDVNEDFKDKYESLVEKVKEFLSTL

A word on the Kd: it is the concentration at which binding is half-saturated. As to `O=C(Nc1ccc(OC(F)(F)F)cc1)c1sccc1NCc1ccnc2ccccc12` [OSI-930], the Kd (in assay [1]; in assay [2]; in assay [3]; in assay [4]; in assay [5]; at Deoxycytidine kinase) was > 30 µM (inactive) throughout. For the same molecule, the Kd in assay [6] and in assay [7] was > 30 µM (inactive) each time.
On to `C=CCN(/C=C1/C(=O)O[C@H](COC)[C@@]2(C)C1=C(O)C(=O)C1=C2[C@H](OC(C)=O)C[C@]2(C)C(=O)CC[C@@H]12)CC=C` [SONOLISIB], for which the Kd (in assay [1]; in assay [2]; in assay [3]; in assay [4]; in assay [5]; at Deoxycytidine kinase) was > 30 µM (inactive) in each case. Further, the Kd in assay [6] and in assay [7] was > 30 µM (inactive) throughout.
For `COc1cccc2cc(-c3nc([C@H]4CC[C@H](C(=O)O)CC4)n4ncnc(N)c34)[nH]c12` [OSI-027], the Kd (in assay [1]; in assay [2]; in assay [3]; in assay [4]; in assay [5]; at Deoxycytidine kinase) was > 30 µM (inactive) each time. The Kd in assay [6] and in assay [7] was > 30 µM (inactive) each time.
`O=c1[nH]c([C@@H]2CCCN2)nc2c1oc1ccc(Cl)cc12`: the Kd (in assay [1]; in assay [2]; in assay [3]; in assay [4]; in assay [5]; at Deoxycytidine kinase) was > 30 µM (inactive) each time. Further, the Kd in assay [6] and in assay [7] was > 30 µM (inactive) each time.
Take `CNC(=O)c1ccc(Nc2ncc(C(F)(F)F)c(NCc3nccnc3N(C)S(C)(=O)=O)n2)cc1` [DEFACTINIB]: the Kd was > 30 µM (inactive) in assay [1]; 2.01 µM in assay [2]; > 30 µM (inactive) in assay [3]; > 30 µM (inactive) in assay [4]; > 30 µM (inactive) in assay [5]; > 30 µM (inactive) at Deoxycytidine kinase. The Kd in assay [6] and in assay [7] was > 30 µM (inactive) in each case.
Turning to `Cc1c(Cn2c(C)nc3c(C(=O)O)cc(N4CCOCC4)cc32)cccc1C(F)(F)F` [GSK-2636771], the Kd (in assay [1]; in assay [2]; in assay [3]; in assay [4]; in assay [5]; at Deoxycytidine kinase) was > 30 µM (inactive) in each case. In addition, the Kd in assay [6] and in assay [7] was > 30 µM (inactive) throughout.
Take `Cc1cc(C(=O)Nc2cc(Oc3ccc4nc(NC(=O)C5CC5)cn4n3)ccc2C)n(C)n1` [TAK-593]: the Kd (in assay [1]; in assay [2]; in assay [3]; in assay [4]; in assay [5]; on Deoxycytidine kinase) was > 30 µM (inactive) in each case. For the same molecule, the Kd in assay [6] and in assay [7] was > 30 µM (inactive) in each case.
On to `Cn1cc(-c2[nH]c3cc(NC(=O)[C@H](N)C4CCCCC4)cc4c3c2C=NNC4=O)cn1`, for which the Kd (in assay [1]; in assay [2]; in assay [3]; in assay [4]; in assay [5]; at Deoxycytidine kinase) was > 30 µM (inactive) throughout. Further, the Kd in assay [6] and in assay [7] was > 30 µM (inactive) in each case.
Consider `C[C@@H]1COC(Nc2ccc3ncnc(Nc4ccc(OCc5nccs5)c(Cl)c4)c3c2)=N1` [VARLITINIB], for which the Kd (in assay [1]; in assay [2]; in assay [3]; in assay [4]; in assay [5]; at Deoxycytidine kinase) was > 30 µM (inactive) in each case. For the same molecule, the Kd in assay [6] and in assay [7] was > 30 µM (inactive) each time.
Regarding `CCc1cc2c(cc1N1CCC(N3CCOCC3)CC1)C(C)(C)c1[nH]c3cc(C#N)ccc3c1C2=O` [ALECTINIB], the Kd (in assay [1]; in assay [2]; in assay [3]; in assay [4]; in assay [5]; on Deoxycytidine kinase) was > 30 µM (inactive) each time. For the same molecule, the Kd in assay [6] and in assay [7] was > 30 µM (inactive) each time.
As to `C#Cc1cccc(Nc2ncnc3cc4c(cc23)OCCOCCOCCO4)c1` [ICOTINIB], the Kd (in assay [1]; in assay [2]; in assay [3]; in assay [4]; in assay [5]; at Deoxycytidine kinase) was > 30 µM (inactive) in each case. The Kd in assay [6] and in assay [7] was > 30 µM (inactive) throughout.
For the molecule `CC1(COc2ccc3c(c2)ncn3-c2ccc3cccc(N4CCC(N)CC4)c3n2)COC1` [CRENOLANIB], the Kd in assay [1] was > 30 µM (inactive); in assay [2] it was 1.38 µM (active); in assay [3], > 30 µM (inactive); in assay [4], 0.282 µM (active); in assay [5], > 30 µM (inactive); on Deoxycytidine kinase, > 30 µM (inactive). For the same molecule, the Kd in assay [6] and in assay [7] was > 30 µM (inactive) in each case.
As for `Cn1c(=O)c(F)c(Nc2ccc(I)cc2F)c2c(=O)n(C[C@@H](O)CO)cnc21` [TAK-733], the Kd (in assay [1]; in assay [2]; in assay [3]; in assay [4]; in assay [5]; on Deoxycytidine kinase) was > 30 µM (inactive) in each case. Also, the Kd in assay [6] and in assay [7] was > 30 µM (inactive) in each case.
